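Where inhibition never reached the appropriate level, the endpoint shown equals the highest concentration tested. Otherwise, values were interpolated linearly from a five-concentration, 48-hour dose response in 96-well plates. GI50 is the concentration that inhibits growth by half.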 Active and inactive are the calls of the source. Rule as the data show it: active = GI50 up to about 1.1 µM and inactive = higher. Some results are limits rather than exact numbers.

Data on 13 compounds can be found in ChEMBL document CHEMBL1201862, “PubChem BioAssay data set” (2004).

Assay in all cases: DTP human tumour cell line panel, 48 h
Assay [1] relates to HT-29.
The test system of assay [2] is MOLT-4.
Assay [3] deals with MDA-MB-231.
Assay [4] relates to PC-3.
Assay [5] concerns M14.
Assay [6] has as its system SK-MEL-28.
For assay [7], the system named is UO-31.
Assay [8] deals with ACHN.
The subject of assay [9] is T47D.
Assay [10] deals with K562.
In assay [11] the test system is 786-0.
The test system of assay [12] is MDA-MB-435.
Assay [13] relates to HOP-62.
Assay [14] relates to LOX IMVI.
Assay [15] relates to SF-268.
In assay [16] the test system is HCT-15.
Assay [17] relates to Malme-3M.
The test system of assay [18] is HOP-92.

Consider `CC(C)CC(O)P(=O)(O)O.NC1CCCCC1` (stereo unspecified), for which the GI50 in assay [1], in [2], in assay [3], in assay [4], in [5] and in assay [6] was > 100 µM (inactive) each time. The GI50 in assay [7], in assay [8], in assay [9], in [10], in assay [11] and in [12] was > 100 µM (inactive) throughout. Also, the GI50 (as a rule, the concentration at which growth is held to half of that of the control) in assay [13] is > 100 µM (inactive).
As to `COC(=O)n1c(=O)n(-c2ccccc2)c(=O)n1C(=O)OC`, the GI50 in assay [1], in assay [2], in assay [3], in [4], in [14] and in assay [5] was > 100 µM (inactive) in each case. In addition, the GI50 in assay [6], in [7], in [15], in assay [9], in assay [10] and in [11] was > 100 µM (inactive) in each case. Also, the GI50 in [16] is > 100 µM; in assay [17], > 100 µM (inactive); in [12] it was > 100 µM (inactive).
Turning to `CN(C)c1ncc(-c2c[nH]c3ccccc23)nc1-c1c[nH]c2ccccc12`, the GI50 in assay [1] is 2.19 µM (inactive); in assay [2], 3.47 µM (inactive); in assay [3], 2.07 µM (inactive); in [4] it was 3.69 µM (inactive); in [14], 2.51 µM (inactive); in [5], 1.89 µM (inactive). Besides, the GI50 in assay [6] is 2.89 µM (inactive); in assay [7], 3.73 µM (inactive); in assay [15], 10.6 µM (inactive); in assay [8], 2.67 µM (inactive); in [9] it was 3.23 µM (inactive); in [10], 2.8 µM (inactive). The GI50 is 2.12 µM (inactive) in assay [11]; 3.14 µM in assay [16]; 3.2 µM (inactive) in assay [18]; 3.31 µM (inactive) in assay [12]; 8.18 µM (inactive) in [13].
For the compound `COP(=O)(OC)C(O)CC(C)C` (stereo unspecified), the GI50 in assay [1], in assay [2], in assay [3], in assay [4], in assay [5] and in assay [6] was > 100 µM (inactive) in each case. For the same compound, the GI50 in assay [7], in assay [8], in assay [9], in assay [10], in assay [11] and in [12] was > 100 µM (inactive) in each case. Besides, in assay [13], the GI50 was > 100 µM (inactive).
Turning to `Cc1cc(C)c2nccc(NCCCN(C)C)c2c1[N+](=O)[O-]`, the GI50 in assay [1] is 18.7 µM (inactive); in [2], 39.6 µM (inactive); in assay [3], 51.1 µM (inactive); in assay [4], 20.6 µM (inactive); in assay [14], 18.6 µM (inactive); in assay [5] it was 19.1 µM (inactive). The GI50 in [6] is 19.6 µM (inactive); in [7] it was 20.3 µM (inactive); in [15], 33 µM (inactive); in [8], 34.9 µM (inactive); in [9], 33.3 µM (inactive); in assay [10], 31 µM (inactive). Moreover, the GI50 in assay [11] was 36.2 µM (inactive); in [16] it was 15 µM; in assay [17], 19.3 µM (inactive); in assay [12] it was 29.6 µM (inactive); in [13], 47.9 µM (inactive).
As to `S=c1[nH]n2c(CCCCCCCCc3nnc4sc(=S)[nH]n34)nnc2s1`, the GI50 in assay [1], in assay [2], in assay [3], in assay [4], in assay [5] and in assay [6] was > 100 µM (inactive) in each case. Moreover, the GI50 in [7], in assay [15], in [8], in assay [9], in assay [10] and in assay [11] was > 100 µM (inactive) each time. Further, the GI50 in assay [16] is > 100 µM; in assay [17], > 100 µM (inactive); in [18], > 100 µM (inactive); in assay [12] it was > 100 µM (inactive); in assay [13] it was > 100 µM (inactive).
Regarding `CCN1CN(c2ccccc2)C2(CCN(CC3COc4ccccc4O3)CC2)C1=O` (stereo unspecified), the GI50 was 20.1 µM (inactive) in [1]; 14.5 µM (inactive) in assay [2]; 2.57 µM (inactive) in assay [3]; 25.3 µM (inactive) in [4]; 17.9 µM (inactive) in [14]; 2.21 µM (inactive) in assay [5]. Besides, the GI50 in [6] was 32.5 µM (inactive); in [7], 29 µM (inactive); in assay [15], 42.5 µM (inactive); in assay [8] it was 23.1 µM (inactive); in [9], 24.3 µM (inactive); in [10], 37.9 µM (inactive). Besides, the GI50 in assay [11] is 47.9 µM (inactive); in assay [16] it was 20.5 µM; in assay [17], 16.9 µM (inactive); in assay [12], 23.3 µM (inactive); in assay [13] it was 35.6 µM (inactive).
As to `C[N+](C)(C)c1ncnc2c1ncn2C1CCCO1` (stereo unspecified), the GI50 in [1], in assay [2], in assay [4], in [5], in assay [6] and in assay [7] was > 100 µM (inactive) each time. The GI50 is > 100 µM (inactive) in [15]; > 100 µM (inactive) in assay [8]; > 100 µM (inactive) in assay [9]; > 100 µM (inactive) in assay [10]; > 100 µM (inactive) in assay [11]; > 100 µM in [16]. Also, the GI50 in [17], in assay [18], in assay [12] and in assay [13] was > 100 µM (inactive) throughout.
Regarding `Clc1nc(Cl)c(-c2ccccc2)c(Cl)n1`, the GI50 was 7.66 µM (inactive) in assay [1]; 2.96 µM (inactive) in [2]; 3.24 µM (inactive) in assay [3]; 1.66 µM (inactive) in assay [14]; 1.62 µM (inactive) in [5]; 5.96 µM (inactive) in assay [6]. In addition, the GI50 was 4.61 µM (inactive) in [7]; 3.19 µM (inactive) in [15]; 0.29 µM (active) in [8]; 2.59 µM (inactive) in [9]; 2.9 µM (inactive) in assay [10]; 2.5 µM (inactive) in [11]. Further, the GI50 in [16] is 2.42 µM; in assay [17] it was 2.02 µM (inactive); in [18], 5.45 µM (inactive); in [12], 3.24 µM (inactive); in [13], 16.9 µM (inactive).
Consider `Cc1ncc([N+](=O)[O-])n1CCNC(=O)Cn1c([N+](=O)[O-])cnc1C`, for which the GI50 in assay [1], in assay [2], in [3], in [4], in assay [5] and in [6] was > 100 µM (inactive) throughout. Further, the GI50 in assay [7], in assay [15], in [8], in assay [9], in [10] and in assay [11] was > 100 µM (inactive) each time. For the same compound, the GI50 in assay [16] was > 100 µM; in [17] it was > 100 µM (inactive); in assay [12], > 100 µM (inactive); in [13] it was > 100 µM (inactive).
For `CCOC(=O)C(C)c1nc2cc3cccnc3c(Cl)c2[nH]c1=O` (stereo unspecified), the GI50 in assay [1] was > 100 µM (inactive); in assay [3], 82 µM (inactive); in assay [4], > 100 µM (inactive); in assay [14], > 100 µM (inactive); in [5], > 100 µM (inactive); in assay [6], > 100 µM (inactive). For the same compound, the GI50 in assay [7] was > 100 µM (inactive); in assay [15] it was 86.1 µM (inactive); in [8], 94.6 µM (inactive); in assay [9], 23.4 µM (inactive); in [10], > 100 µM (inactive); in assay [11], > 100 µM (inactive). Moreover, the GI50 is > 100 µM in [16], > 100 µM (inactive) in assay [18], > 100 µM (inactive) in assay [12] and > 100 µM (inactive) in assay [13].
For the compound `C=CCN(c1cc(OC)c(NC(C)=O)cc1[N+](=O)[O-])S(C)(=O)=O`, the GI50 in assay [2], in [3], in [4], in assay [14], in [5] and in assay [6] was > 100 µM (inactive) throughout. The GI50 in assay [7], in assay [15], in assay [8], in assay [9], in assay [10] and in assay [11] was > 100 µM (inactive) throughout. Moreover, the GI50 in [16] is > 100 µM; in [17], 10.1 µM (inactive); in assay [12] it was > 100 µM (inactive); in assay [13], > 100 µM (inactive).
As to `CCOC(=O)c1sc2[n+](c1C)C(=O)/C(=C/c1ccc([N+](=O)[O-])cc1)S2`, the GI50 was 16.8 µM (inactive) in [1]; 22.2 µM (inactive) in [2]; 46.6 µM (inactive) in assay [3]; 18.9 µM (inactive) in [4]; 25.2 µM (inactive) in assay [14]; 31.6 µM (inactive) in assay [5]. For the same compound, the GI50 was 27.4 µM (inactive) in assay [6]; 15 µM (inactive) in [7]; 12.9 µM (inactive) in [15]; 30.6 µM (inactive) in assay [8]; 25.5 µM (inactive) in assay [9]; 20.9 µM (inactive) in [10]. The GI50 in assay [11] was 22.2 µM (inactive); in assay [18], > 100 µM (inactive); in assay [12], 18 µM (inactive); in assay [13] it was 20.7 µM (inactive).
